Experimental data published in patent US6828345B2, “O-substituted 6-methyltramadol derivatives” (Gruenenthal GmbH, priority 2000, dated 2004).

What was measured:
[1] = tested on: tail-flick pain latency in mice; experiment: Tail-flick (focussed beam) test on mice; assay type: in vivo, NMR mice; details: for ED50: Mus musculus
Description: The analgesic effectiveness of the compounds according to the invention was investigated by the focussed beam (tail-flick) test in mice according to the method developed by D'Amour and Smith (J. Pharmaceutical. Exp. Ther. 72, 74 79 (1941)). NMR mice weighing between 20 and 24 g were used for this purpose. The animals were placed individually in special test cages and the base of the tail was subjected to a focused beam of light from an electric lamp (tail-flick type 55/12/10.fl, Labtec, Dr Hess). The lamp intensity was adjusted so that the time from when the lamp was switched on to the sudden withdrawal of the tail (pain latency) was 3 to 5 seconds in the case of untreated animals. Before administration of a compound according to the invention the animals were pre-tested twice within 5 minutes and the mean value of these measurements was calculated as a pre-test mean value. The pain measurements were carried out 20, 40 and 60 minutes after intravenous administration. The analgesic action was calculated as the increase in the pain latency (% MPE) according to the following formula: […]
Here T0 is the latency time before application of the substance and T1 the latency time after application of the substance, and T2 is the maximum exposure time (12 sec).
In order to determine the dose dependence the respective compound according to the invention was applied in 3 to 5 logarithmically increasing doses that included in each case the threshold dose and the maximal effect dose, and the ED50 values were determined by means of regression analysis. The ED50 calculation was carried out at the effect maximum 20 minutes after intravenous administration of the substance.

[2] = tested on: phenylquinone-induced writhing reaction in mice; experiment: Phenylquinone-induced writhing test in mice; assay type: in vivo, Male NMRI mice; details: orally, phenylquinone i.p. 30 minutes after oral administration, writhing counted 5-20 minutes after phenylquinone; for ED50: Mus musculus, read-out: ED50 writhing inhibition
Protocol: The analgesic effectiveness of the compounds according to the invention was investigated in mice using the phenylquinone-induced writhing test as modified by I. C. Hendershot, J. Forsaith in J. Pharmacol. Exptl. Ther. 125, 237 (1959). Male NMRI mice weighing between 25 and 30 g were used for this purpose. Groups of 10 animals per substance dose received intraperitoneally 30 minutes after oral administration of a compound according to the invention, 0.3 ml per mouse of a 0.02% aqueous phenylquinone solution (phenylbenzoquinone, from Sigma, Deisenhofen; solution prepared by addition of 5% ethanol and storage in a water bath at 45° C.). The animals were then placed individually in observation cages. The number of pain-induced stretching movements (writhing reaction=contortion of the body accompanied by stretching of the rear extremities) was counted using a push-button counter 5-20 minutes after administration of the phenylquinone. The ED50 values (effective dose with 50% inhibition of the writhing reaction) were calculated with 95% level of confidence by means of regression analysis (evaluation program from Martens EDV-Service, Ekental) from the dose-dependent reduction in the writhing reaction compared to mice investigated in parallel to which only phenylquinone had been administered.

[3] = iv, 20 min, i.v., effect maximum 20 minutes after intravenous administration
[4] = i.v., effect maximum 20 minutes after intravenous administration

SMILES	ED50 [1, 3]	ED50 writhing inhibition [2]	other results
CC1CCCC(CN(C)C)C1(O)c1cccc(OC2CCCC2)c1 (stereo not drawn) [Example 14, 1-(3-cyclopentyloxyphenyl)-2-dimethylaminomethyl-6-methylcyclohexanol]	20 mg/kg		ED50 [2]: 26.2 mg/kg
CC1CCCC(CN(C)C)C1(O)c1cccc(O)c1 (racemic) [Example 3, 3-(2-dimethylaminomethyl-1-hydroxy-6-methyl-cyclohexyl)phenol]	2.15 mg/kg	2.09 mg/kg	
CC1CCCC(CN(C)C)C1(O)c1cccc(O)c1 (stereo not drawn) [Example 10, 3-(2-dimethylaminomethyl-1-hydroxy-6-methylcyclohexyl)-phenol]		5.3 mg/kg	ED50 tail-flick [1, 4]: 0.91 mg/kg
COc1cccc(C2(O)C(C)CCCC2CN(C)C)c1 (stereo not drawn) [Example 6, 2-dimethylaminomethyl-1-(3-methoxyphenyl)-6-methylcyclohexanol]	7.73 mg/kg	6.58 mg/kg	
CC1CCCC(CN(C)C)C1(O)c1cccc(OCC2CCC2)c1 (stereo not drawn) [Example 16, 1-(3-cyclobutylmethoxyphenyl)-2-dimethylaminomethyl-6-methylcyclohexanol]	21.5 mg/kg		ED50 [2]: 32.8 mg/kg
C#COc1cccc(C2(O)C(C)CCCC2CN(C)C)c1 (stereo not drawn) [Example 19, 2-dimethylaminomethyl-1-(3-ethynyloxyphenyl)-6-methylcyclohexanol]	14.7 mg/kg		
COc1cccc(C2(O)C(C)CCCC2CN(C)C)c1 (racemic) [Example 1, 2-dimethylaminomethyl-1-(3-methoxyphenyl)-6-methylcyclohexanol]	5.6 mg/kg		
CC1CCCC(CN(C)C)C1(O)c1cccc(O)c1 (racemic) [Example 8, 3-(2-dimethylaminomethyl-1-hydroxy-6-methylcyclohexyl)-phenol]		14.0 mg/kg	
COc1cccc(C2(O)C(C)CCCC2CN(C)C)c1 (stereo not drawn) [Example 5, 2-dimethylaminomethyl-1-(3-methoxyphenyl)-6-methylcyclohexanol]			ED50 ([1]; po, orally (cell note)): 42.9 mg/kg; ED50 [2]: 11 mg/kg
C=CCOc1cccc(C2(O)C(C)CCCC2CN(C)C)c1 (racemic) [Example 4, 1-(3-allyloxyphenyl)-2-dimethylaminomethyl-6-methylcyclohexanol]	20.2 mg/kg		ED50 [2]: 9.38 mg/kg
CC1CCCC(CN(C)C)C1(O)c1cccc(O)c1 (stereo not drawn) [Example 9, 3-(2-dimethylaminomethyl-1-hydroxy-6-methylcyclohexyl)-phenol]		19.8 mg/kg	ED50 tail-flick [1, 4]: 14.7 mg/kg
CCOc1cccc(C2(O)C(C)CCCC2CN(C)C)c1 (stereo not drawn) [Example 12, 2-dimethylaminomethyl-1-(3-ethoxyphenyl)-6-methylcyclohexanol]	13.4 mg/kg	4.39 mg/kg	
CC1CCCC(CN(C)C)C1(O)c1cccc(OC2CCC2)c1 (stereo not drawn) [Example 21, 1-(3-cyclobutoxyphenyl)-2-dimethylaminomethyl-6-methylcyclohexanol]	30 mg/kg		
CCOc1cccc(C2(O)C(C)CCCC2CN(C)C)c1 (racemic) [Example 2, 2-dimethylaminomethyl-1-(3-ethoxyphenyl)-6-methylcyclohexanol]	11.9 mg/kg		
CCOc1cccc(C2(O)C(C)CCCC2CN(C)C)c1 (stereo not drawn) [Example 11, 2-dimethylaminomethyl-1-(3-ethoxyphenyl)-6-methylcyclohexanol]		21.6 mg/kg	
